Results from US8658647B2, “Integrin-linked kinase inhibitors” (The Ohio State University Research Foundation, priority 2010, dated 2014).
Values belong to the molecule of their own block, whether it stands above or below them.

How the values were obtained:
[1] = test system: PC-3 human prostate cancer cells; assay: MTT cell viability assay in PC-3 cells; format: cell-based; conditions: 24 h, 5% FBS; for IC50: Homo sapiens, read-out: IC50, antiproliferative activity
Description: (§1) FIG. 2 provides (A) Western blot analysis of the effects of compounds 1-9 on Akt phosphorylation at the PDK1 (T308) and PDK2 (S473) sites in PC-3 human prostate cancer cells after 24 h treatment at 2.5 μM in the presence of 5% fetal bovine serum (FBS), and (B) Dose-dependent effects of compounds 1-9 on the viability of PC-3 cells treated as described above in A. Cell viability was assessed by MTT assay. Points, mean; bars, ±SD.
(§2) FIG. 5 provides the results from the screening of compounds 10-13. (A) Dose-dependent effects of compounds 10-13 and 2 on the viability of PC-3 cells after 24 h treatment […] in the presence of 5% FBS. Cell viability was assessed by MTT assay. Points, mean; bars, ±SD. (B) Western blot analysis of the effects of compounds 2 and 13 on the phosphorylation status of downstream targets of ILK in PC-3 cells.
(§3) In another series of tests, Compounds 10-13 were screened for antiproliferative activity, in parallel with compound 2, by MTT assay in PC-3 human prostate cancer cells. […] The effects of compound 13, vs. compound 2, on the phosphorylation status of downstream targets of ILK in PC-3 cells were evaluated by western blotting.

[2] = test system: Akt phosphorylation at the PDK2 site [S473] versus the PDK1 site [T308]; assay: Western blot of Akt phosphorylation at PDK2 (S473) vs PDK1 (T308) sites in PC-3 cells; format: cell-based, human; conditions: 24 h, 2.5 μM, 5% FBS
Description: as §1

[3] = test system: MCF-7 human breast cancer cells; assay: MTT cell viability assay in MCF-7 cells; format: cell-based; conditions: MCF7, 24 h, 5% FBS, read-out: IC50, antiproliferative activity
Description: (§4) Dose-dependent effects of compounds 4-9 in MCF-7 (upper panel) and SKBR3 (lower) cells after 24 h treatment in the presence of 5% FBS. Cell viability was assessed by MTT assay. Points, mean; bars, ±SD.
(§5) Compounds 4-9, which were screened previously in a prostate cancer cell line (FIG. 2), were evaluated for antiproliferative activity in MCF-7 and SKBR3 human breast cancer cells.

[4] = test system: SKBR3 human breast cancer cells; assay: MTT cell viability assay in SKBR3 cells; format: cell-based; conditions: SK-BR-3, 24 h, 5% FBS, read-out: IC50, antiproliferative activity
Description: as §4, §5

[5] = test system: downstream targets of ILK; assay: Western blot of phosphorylation status of downstream targets of ILK in PC-3 cells (FIG. 5B); format: cell-based, human
Description: as §2, §3

PC-3 tumor xenografts = assay: PC-3 prostate tumor xenograft model, oral dosing; format: in vivo; conditions: 35 days
Description: PC-3 tumors were established in male athymic nude mice by subcutaneous injection of 5×10^5 PC-3 cells in a total volume of 0.1 ml serum-free medium containing 50% Matrigel. Mice with established tumors were randomized to three groups receiving the indicated treatments once daily by gavage for 35 days. Tumor sizes and body weights were measured weekly. Points, mean tumor volume; bars, ±SD.
The In vivo tumor suppressive activity of compound 2 in the PC-3 prostate tumor xenograft model was also evaluated. Based on the results described above, compound 2 was identified as the lead agent for development as a novel ILK/PDK2 inhibitor. To evaluate the in vivo antitumor activity of compound 2, athymic nude mice bearing established subcutaneous PC-3 tumor xenografts (mean starting tumor volume, 157.1±29.1 mm^3) were treated orally for 35 days with compound 2 at 25 or 50 mg/kg once daily or with vehicle (0.5% methylcellulose and 0.1% Tween 80 in sterile water) (n=5 mice). […] The in vivo efficacy of compound 2 after oral administration indicates its oral bioavailability.

[6] = test system: prostate (PC-3, LNCaP) and breast cancer (MDA-MB-468, MDA-MB-231, CAL51, MCF-7, SKBR3) cell lines vs nonmalignant prostate (PrEC) and mammary epithelial cells …; assay: MTT cell viability in panel of prostate and breast cancer cell lines vs nonmalignant epithelial cells; format: cell-based, human; conditions: 12, 24 or 48 h
Description: Time- and/or dose-dependent effects of compound 2 on cell viability in (A) prostate cancer (PC-3, LNCaP) and nonmalignant prostate epithelial cells (PrEC), and (B) breast cancer (MDA-MB-468, MDA-MB-231, CAL51, MCF-7, SKBR3) and nonmalignant mammary epithelial cells (MEC) were determined. Cells were treated for 12, 24 or 48 h at the indicated concentrations and cell viability determined by MTT assays. Points, mean; bars, ±SD.
As structurally related compounds 2 and 3 differ only in that the N-alkyl moiety, i.e., methyl versus ethyl, compound 2 was selected for more thorough evaluation. Dose- and time-dependent effects of compound 2 on cell viability were determined in a panel of two prostate (PC-3, LNCaP) and five breast cancer (MDA-MB-468, MDA-MB-231, CAL51, MCF-7, SKBR3) cell lines (FIGS. 3A and B). Moreover, cancer cell lines were also evaluated in parallel with nonmalignant prostate and mammary epithelial cells (FIG. 3A, lower panel; 3B lower right panel).

[7] = test system: downstream targets of ILK (Akt-S473; GSK3β-S9); assay: Western blot of downstream targets of ILK, dose-dependent (FIG. 4); format: cell-based, human; conditions: PC-3 and MDA-MB-468 cells, 24 h, 5% FBS
Description: FIG. 4 provides evidence that Compound 2 suppresses the ILK signaling pathway. Western blot analysis of the dose-dependent effect of Compound 2 on downstream targets of ILK (Akt-S473; GSK3β-S9) in PC-3 and […] cells. Cells were treated for 24 h at the indicated concentrations in the presence of 5% FBS.
Based on western blot data showing the selective reduction in phospho-Akt-S473 levels relative to those of phospho-Akt-T308 (FIG. 2A), compound 2 was identified as an inhibitor of PDK2 activity. To evaluate compound 2 for the ability to inhibit ILK signaling, its effect on downstream targets of ILK was assessed in PC-3 and MDA-MB-468 cells by Western blotting (FIG. 4).

SMILES: CCNC(=O)CCc1cc(-c2ccc(-c3ccc(C(F)(F)F)cc3)cc2)n(-c2ccc(N3CCNCC3)cc2)n1 [Compound 3, N-ethyl-3-(1-(4-(piperazin-1-yl)phenyl)-5-(4′-(trifluoromethyl)-[1,1′-biphenyl]-4-yl)-1H-pyrazol-3-yl)propanamide]
antiproliferative activity, relative potency among compounds 1-9 [1]: most potent among the nine compounds
selective inhibition of Akt-S473 phosphorylation (PDK2 inhibitory activity) [2]: marked selective inhibition of Akt-S473 phosphorylation

IC50 [3]: 4 to 5 µM
IC50 [4]: 4 to 5 µM
SMILES: CCNC(=O)c1cc(-c2ccc(-c3ccc(C(F)(F)F)cc3)cc2)n(-c2ccc(NC(=O)CCN)cc2)n1 [Compound 5, 1-(4-(3-aminopropanamido)phenyl)-N-ethyl-5-(4′-(trifluoromethyl)-[1,1′-biphenyl]-4-yl)-1H-pyrazole-3-carboxamide]

IC50 [1]: 2 to 3 µM
SMILES: CNC(=O)CCc1cc(-c2ccc(-c3ccc(C)cc3)cc2)n(-c2ccc(N3CCNCC3)cc2)n1 [Compound 11, N-methyl-3-(5-(4′-methyl-[1,1′-biphenyl]-4-yl)-1-(4-(piperazin-1-yl)phenyl)-1H-pyrazol-3-yl)propanamide]

SMILES: CNC(=O)CCc1cc(-c2ccc3c(ccc4ccccc43)c2)n(-c2ccc(N3CCNCC3)cc2)n1 [Compound 13, N-methyl-3-(5-(phenanthren-2-yl)-1-(4-(piperazin-1-yl)phenyl)-1H-pyrazol-3-yl)propanamide]
phospho-Akt-S473 relative to phospho-Akt-T308 [5]: strong reduction
suppressive activity against GSK3β phosphorylation [5]: did not exhibit substantial suppressive activity
IC50 [1]: 2 to 3 µM

SMILES: CNC(=O)CCc1cc(-c2ccc(-c3ccc(C(F)(F)F)cc3)cc2)n(-c2ccc(N3CCNCC3)cc2)n1 [Compound 2, N-methyl-3-(1-(4-(piperazin-1-yl)phenyl)-5-(4′-(trifluoromethyl)-[1,1′-biphenyl]-4-yl)-1H-pyrazol-3-yl)propanamide]
inhibition of PC-3 tumor growth relative to vehicle-treated controls (PC-3 tumor xenografts; 25 mg/kg once daily oral, P=0.10): 42%
inhibition of PC-3 tumor growth relative to vehicle-treated controls (PC-3 tumor xenografts; 50 mg/kg once daily oral, P=0.03): 56%
changes in body weight (PC-3 tumor xenografts; 25 or 50 mg/kg once daily oral): nor significant changes in body weight
tolerability, signs of toxicity (PC-3 tumor xenografts; 25 or 50 mg/kg once daily oral): no overt signs of toxicity
antiproliferative activity, relative potency among compounds 1-9 [1]: most potent among the nine compounds
selectivity of cytotoxicity, cancer cells versus nonmalignant cells [6]: selective cytotoxicity for cancer cells versus their nonmalignant counterparts
phospho-S473-Akt levels [7]: marked and selective decrease
phosphorylation of GSK3β [7]: reduced the phosphorylation
selective inhibition of Akt-S473 phosphorylation (PDK2 inhibitory activity) [2]: marked selective inhibition of Akt-S473 phosphorylation
